In assay [1] the target is T1, TRPV4 channel receptors (Bos taurus, UniProt A0A8F4X677).
T1 construct: obtained using this method in bovine articular chondrocytes; endogenous in cells; host or cells: bovine articular chondrocytes
The assay is described as follows: Ca2+ influx, Fura-2 fluorescence on FlexStation, bovine articular chondrocytes. Type of assay: cell-based. The text has this: (§1) Ca^2+ influx mediated through TRPV4 channel receptors can be measured using articular chondrocytes from such species as, but not limited to, human, rat, canine, rabbit, monkey, and bovine, using standard techniques in the art such as, but not limited to, Fura-2 (Invitrogen/Molecular Probes, Eugene, Oreg.) fluorescence using a FlexStation (manufactured by Molecular Devices, Sunnyvale, Calif.). Table 1 lists biological data for several representative compounds obtained using this method in bovine articular chondrocytes.

The target of assay [2] is T2, TRPV4 channel receptors (Homo sapiens, UniProt Q9HBA0).
T2 construct: obtained using this method in human articular chondrocytes; endogenous in cells; host or cells: human articular chondrocytes
T2 sequence (Q9HBA0 whole entry): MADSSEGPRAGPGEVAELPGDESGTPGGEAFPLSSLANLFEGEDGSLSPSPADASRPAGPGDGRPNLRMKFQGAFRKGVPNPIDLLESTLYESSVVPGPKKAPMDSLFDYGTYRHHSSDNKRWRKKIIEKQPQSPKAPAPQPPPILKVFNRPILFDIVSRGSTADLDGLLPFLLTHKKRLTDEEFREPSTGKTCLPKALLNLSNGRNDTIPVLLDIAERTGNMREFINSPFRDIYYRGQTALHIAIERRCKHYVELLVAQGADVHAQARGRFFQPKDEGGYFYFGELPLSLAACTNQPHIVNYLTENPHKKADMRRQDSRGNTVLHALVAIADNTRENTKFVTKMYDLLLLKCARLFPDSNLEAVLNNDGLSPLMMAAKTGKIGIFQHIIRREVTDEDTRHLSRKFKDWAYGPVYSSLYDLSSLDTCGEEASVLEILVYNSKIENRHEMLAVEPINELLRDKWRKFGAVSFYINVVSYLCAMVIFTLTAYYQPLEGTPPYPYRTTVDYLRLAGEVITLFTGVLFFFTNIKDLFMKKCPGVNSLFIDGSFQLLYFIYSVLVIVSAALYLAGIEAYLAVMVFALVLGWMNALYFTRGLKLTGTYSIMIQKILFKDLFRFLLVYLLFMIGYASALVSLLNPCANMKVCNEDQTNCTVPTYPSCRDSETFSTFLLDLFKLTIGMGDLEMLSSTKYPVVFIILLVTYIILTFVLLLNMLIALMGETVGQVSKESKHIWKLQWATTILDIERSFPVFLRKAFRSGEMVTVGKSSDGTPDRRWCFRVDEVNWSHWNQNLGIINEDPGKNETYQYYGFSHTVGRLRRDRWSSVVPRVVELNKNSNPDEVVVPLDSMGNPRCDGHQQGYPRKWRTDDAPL
The assay is described as follows: Ca2+ influx, Fura-2 fluorescence on FlexStation, human articular chondrocytes. Type of assay: cell-based.
Description: as §1
Table 2 lists biological data for several representative compounds obtained using this method in human articular chondrocytes.

pEC50: −log10 of the molar value.

By pEC50 is commonly meant −log10 of the EC50, conventionally taken in molar units. A high value points to a low EC50.

T1 sequence (A0A8F4X677 1-871): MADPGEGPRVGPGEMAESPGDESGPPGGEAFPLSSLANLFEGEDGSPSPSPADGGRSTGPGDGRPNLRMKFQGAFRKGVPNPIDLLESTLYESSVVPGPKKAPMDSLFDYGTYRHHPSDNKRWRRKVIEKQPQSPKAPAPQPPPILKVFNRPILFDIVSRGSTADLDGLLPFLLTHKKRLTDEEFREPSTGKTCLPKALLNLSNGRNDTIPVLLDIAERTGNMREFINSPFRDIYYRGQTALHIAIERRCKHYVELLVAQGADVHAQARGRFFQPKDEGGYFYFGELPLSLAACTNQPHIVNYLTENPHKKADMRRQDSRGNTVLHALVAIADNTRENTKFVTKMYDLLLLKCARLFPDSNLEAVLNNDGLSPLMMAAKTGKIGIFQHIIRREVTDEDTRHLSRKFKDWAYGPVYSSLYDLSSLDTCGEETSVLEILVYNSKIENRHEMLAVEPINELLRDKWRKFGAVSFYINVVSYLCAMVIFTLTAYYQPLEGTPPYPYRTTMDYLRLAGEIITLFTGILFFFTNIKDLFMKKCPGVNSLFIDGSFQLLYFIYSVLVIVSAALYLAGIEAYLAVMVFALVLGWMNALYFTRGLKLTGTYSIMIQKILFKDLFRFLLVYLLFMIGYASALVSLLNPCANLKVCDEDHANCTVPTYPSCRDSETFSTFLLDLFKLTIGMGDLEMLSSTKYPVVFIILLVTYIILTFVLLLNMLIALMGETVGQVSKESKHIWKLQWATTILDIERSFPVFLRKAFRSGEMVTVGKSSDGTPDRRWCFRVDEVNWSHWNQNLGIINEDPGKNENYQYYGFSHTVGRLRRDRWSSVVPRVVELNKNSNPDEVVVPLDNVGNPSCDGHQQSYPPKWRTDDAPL

As for `CC(C)C[C@H](NC(=O)c1cc2ccccc2s1)C(=O)NC[C@@H]1CN(S(=O)(=O)c2ccc(F)cc2Cl)C[C@@H]1O` (single isomer, unassigned) [Example 2], the results for the pEC50 at TRPV4 channel receptors [1] and at TRPV4 channel receptors [2] were 7.00 to 7.15 and 6.00 to 7.00, respectively.

`CC(C)C[C@H](NC(=O)c1cc2ccccc2s1)C(=O)NC[C@H]1CN(S(=O)(=O)c2ccc(Cl)cc2Cl)C[C@H]1O` (single isomer, unassigned) [Example 3]: the pEC50 at TRPV4 channel receptors [1] is 7.22 to 7.52; on TRPV4 channel receptors [2] it was 7.05 to 7.52.

`CC(C)C[C@H](NC(=O)c1cc2ccccc2s1)C(=O)NC[C@@H]1CN(S(=O)(=O)c2ccc(F)cc2C(F)(F)F)C[C@@H]1O` (single isomer, unassigned) [Example 6] showed a pEC50 at TRPV4 channel receptors [2] of 5.00 to 6.00.
